Source: publication PMC7782793, “Hydroxamic acid-modified peptide microarrays for profiling isozyme-selective interactions and inhibition of histone deacetylases” (Nature Communications, 2021)
Where “and” joins values, the source holds several entries; their conditions need not be identical. Equal entries are not always repeated. Marks after values point to notes of the source that are not given here. Non-standard residues stand in square brackets, D forms with d. Residues, ends and D or L forms follow the SMILES beside them. *: point of attachment. Asu = N[C@@H](CCCCCC(=O)O)C(=O)O; NHOH = ON*

How the values were obtained:
Type in all cases: biochemical
HDAC3/NCoR2 = target: T1, HDAC3/NCoR2 (Homo sapiens, UniProt O15379); assay: HDAC inhibition assay (fluorogenic, Ac-Leu-Gly-Lys(Ac)-AMC); details: HDAC3, replicates
T1 construct: HDAC3/NCoR2 (full length, C-terminal His tag, NCoR2 N-terminal GST tag); purchased BPS Bioscience 50003

HDAC8 = target: T2, HDAC8 (Homo sapiens, UniProt Q9BY41); assay: HDAC inhibition assay (fluorogenic, Ac-Leu-Gly-Lys(Tfa)-AMC); details: HDAC8, replicates
T2 construct: HDAC8 (full length, C-terminal His tag, BPS Bioscience, cat. #: 50008); purchased BPS Bioscience 50008
T2 sequence (Q9BY41 1-377): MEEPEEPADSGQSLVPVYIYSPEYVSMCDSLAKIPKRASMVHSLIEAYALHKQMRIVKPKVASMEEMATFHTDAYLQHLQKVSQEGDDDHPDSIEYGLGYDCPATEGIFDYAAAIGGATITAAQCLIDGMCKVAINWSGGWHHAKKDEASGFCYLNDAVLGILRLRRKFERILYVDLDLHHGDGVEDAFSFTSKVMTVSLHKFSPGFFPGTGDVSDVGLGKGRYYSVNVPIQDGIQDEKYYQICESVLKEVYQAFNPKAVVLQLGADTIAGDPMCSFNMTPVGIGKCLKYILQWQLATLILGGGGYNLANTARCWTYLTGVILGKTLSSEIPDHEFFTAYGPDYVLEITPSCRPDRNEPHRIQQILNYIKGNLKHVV

HDAC1 = target: T3, HDAC1 (Homo sapiens, UniProt Q13547); assay: HDAC inhibition assay (fluorogenic, Ac-Leu-Gly-Lys(Ac)-AMC); details: HDAC1, replicates
T3 construct: HDAC1 (full length, C-terminal His tag, C-terminal FLAG tag, BPS Bioscience, cat. #: 50051); FLAG (C); purchased BPS Bioscience 50051

HDAC6 = target: T4, HDAC6 (Homo sapiens, UniProt Q9UBN7); assay: as above; details: HDAC6, replicates
T4 construct: HDAC6 (full length, BPS Bioscience, cat. #: 50056); purchased BPS Bioscience 50056
T4 sequence (Q9UBN7 1-1215): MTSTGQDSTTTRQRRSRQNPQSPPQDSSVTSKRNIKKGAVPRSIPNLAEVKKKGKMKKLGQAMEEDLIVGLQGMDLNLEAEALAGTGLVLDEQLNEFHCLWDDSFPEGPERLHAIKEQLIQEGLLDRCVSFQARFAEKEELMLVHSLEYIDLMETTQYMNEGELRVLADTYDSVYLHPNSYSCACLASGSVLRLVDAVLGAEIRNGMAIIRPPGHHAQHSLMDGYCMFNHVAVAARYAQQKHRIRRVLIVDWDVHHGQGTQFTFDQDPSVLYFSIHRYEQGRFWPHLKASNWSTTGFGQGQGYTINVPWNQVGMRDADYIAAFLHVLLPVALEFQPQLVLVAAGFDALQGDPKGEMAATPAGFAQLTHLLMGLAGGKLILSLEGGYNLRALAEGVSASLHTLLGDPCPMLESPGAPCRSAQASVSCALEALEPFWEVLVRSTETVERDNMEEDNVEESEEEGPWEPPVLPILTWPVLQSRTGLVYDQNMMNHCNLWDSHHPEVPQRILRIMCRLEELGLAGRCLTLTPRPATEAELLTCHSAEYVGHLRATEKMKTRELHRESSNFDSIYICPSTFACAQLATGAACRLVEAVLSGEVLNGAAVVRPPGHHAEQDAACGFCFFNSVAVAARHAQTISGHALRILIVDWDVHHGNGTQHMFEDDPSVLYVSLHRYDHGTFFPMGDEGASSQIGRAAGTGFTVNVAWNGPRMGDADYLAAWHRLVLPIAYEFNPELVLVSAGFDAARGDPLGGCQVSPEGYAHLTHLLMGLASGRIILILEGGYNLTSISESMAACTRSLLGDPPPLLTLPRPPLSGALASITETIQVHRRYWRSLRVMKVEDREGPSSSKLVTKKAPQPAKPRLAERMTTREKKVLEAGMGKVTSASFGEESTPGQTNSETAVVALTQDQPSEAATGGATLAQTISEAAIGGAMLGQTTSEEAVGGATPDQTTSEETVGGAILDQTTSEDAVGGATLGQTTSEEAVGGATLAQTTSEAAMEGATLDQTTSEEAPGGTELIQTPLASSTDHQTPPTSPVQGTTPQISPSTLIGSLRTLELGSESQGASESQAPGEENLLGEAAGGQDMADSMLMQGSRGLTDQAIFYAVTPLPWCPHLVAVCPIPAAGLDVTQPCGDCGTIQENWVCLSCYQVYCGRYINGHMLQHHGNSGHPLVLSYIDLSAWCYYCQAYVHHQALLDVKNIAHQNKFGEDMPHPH

HDAC2 = target: T5, HDAC2 (Homo sapiens, UniProt Q92769); assay: as above; details: HDAC2, replicates
T5 construct: HDAC2 (full length, C-terminal His tag, BPS Bioscience, cat. #: 50002); purchased BPS Bioscience 50002

[1] = log[inhibitor(M)] -10,5850266520292*

T1 sequence (O15379 whole entry): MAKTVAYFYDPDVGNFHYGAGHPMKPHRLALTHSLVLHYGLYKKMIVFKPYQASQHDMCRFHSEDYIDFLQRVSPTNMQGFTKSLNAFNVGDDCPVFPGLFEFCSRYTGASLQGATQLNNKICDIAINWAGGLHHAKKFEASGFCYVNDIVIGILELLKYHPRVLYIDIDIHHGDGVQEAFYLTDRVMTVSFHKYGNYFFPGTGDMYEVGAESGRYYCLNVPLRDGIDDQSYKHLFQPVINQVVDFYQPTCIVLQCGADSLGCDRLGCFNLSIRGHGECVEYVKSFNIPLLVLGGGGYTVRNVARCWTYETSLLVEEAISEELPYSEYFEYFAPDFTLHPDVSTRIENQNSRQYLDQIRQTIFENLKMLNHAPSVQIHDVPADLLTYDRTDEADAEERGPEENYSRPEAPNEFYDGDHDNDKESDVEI
T1 sequence (Q9Y618 389-480 partner limits assumed): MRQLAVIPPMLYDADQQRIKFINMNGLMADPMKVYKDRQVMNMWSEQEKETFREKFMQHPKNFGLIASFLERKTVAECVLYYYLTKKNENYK
T3 sequence (Q13547 whole entry): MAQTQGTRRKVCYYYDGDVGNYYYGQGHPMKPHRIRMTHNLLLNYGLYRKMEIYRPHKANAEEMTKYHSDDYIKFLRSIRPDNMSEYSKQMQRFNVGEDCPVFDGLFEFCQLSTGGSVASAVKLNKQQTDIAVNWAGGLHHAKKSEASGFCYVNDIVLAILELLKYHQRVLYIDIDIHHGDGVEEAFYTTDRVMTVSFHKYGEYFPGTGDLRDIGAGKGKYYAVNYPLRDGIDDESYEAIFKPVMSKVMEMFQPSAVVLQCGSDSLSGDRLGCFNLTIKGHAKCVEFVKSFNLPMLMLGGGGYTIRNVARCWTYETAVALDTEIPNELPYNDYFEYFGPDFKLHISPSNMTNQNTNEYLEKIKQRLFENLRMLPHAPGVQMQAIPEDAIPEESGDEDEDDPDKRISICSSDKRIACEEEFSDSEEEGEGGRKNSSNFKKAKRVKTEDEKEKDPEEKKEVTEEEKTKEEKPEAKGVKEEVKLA
T5 sequence (Q92769 whole entry): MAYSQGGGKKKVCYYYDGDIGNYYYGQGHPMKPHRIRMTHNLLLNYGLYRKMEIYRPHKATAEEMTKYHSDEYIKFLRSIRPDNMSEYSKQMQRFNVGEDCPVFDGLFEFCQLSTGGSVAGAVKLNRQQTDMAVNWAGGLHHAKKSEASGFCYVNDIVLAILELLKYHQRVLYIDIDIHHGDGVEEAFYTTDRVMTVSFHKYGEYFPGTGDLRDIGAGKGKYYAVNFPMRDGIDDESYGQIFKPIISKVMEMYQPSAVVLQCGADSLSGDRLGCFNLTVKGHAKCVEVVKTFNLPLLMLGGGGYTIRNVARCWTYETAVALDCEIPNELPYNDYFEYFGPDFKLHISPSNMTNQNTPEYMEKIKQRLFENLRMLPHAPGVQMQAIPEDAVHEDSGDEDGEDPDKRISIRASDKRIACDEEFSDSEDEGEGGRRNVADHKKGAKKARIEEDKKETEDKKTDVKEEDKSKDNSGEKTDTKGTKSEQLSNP

CC(=O)N[C@@H](CCCCN)C(=O)NCC(=O)NCC(=O)N[C@@H](CCCCN)C(=O)NCC(=O)N[C@@H](CC(C)C)C(=O)NCC(=O)N[C@@H](CCCCCC(=O)NO)C(=O)NCC(=O)NCC(=O)N[C@@H](C)C(=O)N[C@@H](CCCCN)C(=O)N[C@@H](CCCNC(=N)N)C(=O)N[C@@H](Cc1c[nH]cn1)C(=O)N[C@@H](CCCNC(=N)N)C(=O)N[C@@H](Cc1c[nH]c2ccccc12)C(N)=O [1a] (Ac-KGGKGLG[Asu](NHOH)GGAKRHRW-NH2)
residual enzymatic activity relative to control wells (HDAC3/NCoR2; log[inhibitor(M)] -4.30103): 0,27707809* and 0,48240325* | residual enzymatic activity relative to control wells (HDAC3/NCoR2; log[inhibitor(M)] -5): 1.078 and 1.224 | residual enzymatic activity relative to control wells (HDAC3/NCoR2; log[inhibitor(M)] -5.69897): 2.835 and 3.644 | residual enzymatic activity relative to control wells (HDAC3/NCoR2; log[inhibitor(M)] -6.39794): 8.976 and 10.8935 | residual enzymatic activity relative to control wells (HDAC3/NCoR2; log[inhibitor(M)] -7.09691): 20.3107 and 23.0019 | residual enzymatic activity relative to control wells (HDAC3/NCoR2; log[inhibitor(M)] -7.79588): 35.6703 and 40.8157 | residual enzymatic activity relative to control wells (HDAC3/NCoR2; log[inhibitor(M)] -8.49485): 61.9563 and 69.3477 | residual enzymatic activity relative to control wells (HDAC3/NCoR2; log[inhibitor(M)] -9.19382): 85.7851 and 89.42 | residual enzymatic activity relative to control wells (HDAC3/NCoR2; log[inhibitor(M)] -9.89279): 97.8645 and 95.529 | residual enzymatic activity relative to control wells (HDAC3/NCoR2; log[inhibitor(M)] -10.585): 99.8741 and 99.2523 | residual enzymatic activity relative to control wells (HDAC8; log[inhibitor(M)] -4.30103): 0.7299 and 0.6853 | residual enzymatic activity relative to control wells (HDAC8; log[inhibitor(M)] -5): 2.535 and 2.3091 | residual enzymatic activity relative to control wells (HDAC8; log[inhibitor(M)] -5.69897): 8.883 and 8.651 | residual enzymatic activity relative to control wells (HDAC8; log[inhibitor(M)] -6.39794): 23.8025 and 24.0279 | residual enzymatic activity relative to control wells (HDAC8; log[inhibitor(M)] -7.09691): 53.2804 and 53.6221 | residual enzymatic activity relative to control wells (HDAC8; log[inhibitor(M)] -7.79588): 81.5639 and 82.7228 | residual enzymatic activity relative to control wells (HDAC8; log[inhibitor(M)] -8.49485): 92.8692 and 94.6574 | residual enzymatic activity relative to control wells (HDAC8; log[inhibitor(M)] -9.19382): 96.2557 and 98.5897 | residual enzymatic activity relative to control wells (HDAC8; log[inhibitor(M)] -9.89279): 97.4874 and 100.887 | residual enzymatic activity relative to control wells (HDAC8; [1]): 99,4860668* and 101,450216* | residual enzymatic activity relative to control wells (HDAC1; log[inhibitor(M)] -4.30103): 0.3873 and 0.804 | residual enzymatic activity relative to control wells (HDAC1; log[inhibitor(M)] -5): 1.615 and 1.98 | residual enzymatic activity relative to control wells (HDAC1; log[inhibitor(M)] -5.69897): 4.97 and 7.056 | residual enzymatic activity relative to control wells (HDAC1; log[inhibitor(M)] -6.39794): 17.3755 and 23.9522 | residual enzymatic activity relative to control wells (HDAC1; log[inhibitor(M)] -7.09691): 42.4661 and 51.6182 | residual enzymatic activity relative to control wells (HDAC1; log[inhibitor(M)] -7.79588): 69.6554 and 78.2753 | residual enzymatic activity relative to control wells (HDAC1; log[inhibitor(M)] -8.49485): 90.2096 and 95.3244 | residual enzymatic activity relative to control wells (HDAC1; log[inhibitor(M)] -9.19382): 98.0899 and 101.545 | residual enzymatic activity relative to control wells (HDAC1; log[inhibitor(M)] -9.89279): 100.633 and 103.923 | residual enzymatic activity relative to control wells (HDAC1; [1]): 100,638665* and 104,135042* | residual enzymatic activity relative to control wells (HDAC6; log[inhibitor(M)] -4.30103): 2.005 and 0.9042 | residual enzymatic activity relative to control wells (HDAC6; log[inhibitor(M)] -5): 3.396 and 1.499 | residual enzymatic activity relative to control wells (HDAC6; log[inhibitor(M)] -5.69897): 3.721 and 2.924 | residual enzymatic activity relative to control wells (HDAC6; log[inhibitor(M)] -6.39794): 6.701 and 7.197 | residual enzymatic activity relative to control wells (HDAC6; log[inhibitor(M)] -7.09691): 17.8452 and 18.76 | residual enzymatic activity relative to control wells (HDAC6; log[inhibitor(M)] -7.79588): 40.4588 and 44.1884 | residual enzymatic activity relative to control wells (HDAC6; log[inhibitor(M)] -8.49485): 67.624 and 70.0247 | residual enzymatic activity relative to control wells (HDAC6; log[inhibitor(M)] -9.19382): 82.7418 and 78.8697 | residual enzymatic activity relative to control wells (HDAC6; log[inhibitor(M)] -9.89279): 94.6266 and 87.8667 | residual enzymatic activity relative to control wells (HDAC6; log[inhibitor(M)] -10.585): 92.0979 and 95.7297 | residual enzymatic activity relative to control wells (HDAC2; log[inhibitor(M)] -5): 2.133 and 2.791 | residual enzymatic activity relative to control wells (HDAC2; log[inhibitor(M)] -5.69897): 7.69 and 10.6271 | residual enzymatic activity relative to control wells (HDAC2; log[inhibitor(M)] -7.79588): 81.9038 and 87.9722 | residual enzymatic activity relative to control wells (HDAC2; [1]): 96,4513363* and 102,627848*
